Test results from US20160304477A1 (LAguna Pharmaceuticals, Inc., priority 2013, published 2016).
Where two headings read alike, the source gives them in different places.

How the values were obtained:
[1] = Plasma concentrations of vanoxerine and its hydroxyl metabolites in patients after a 300 mg dose of vanoxerine (LC-MS/MS); assay type: in vivo, human; details: 300 mg vanoxerine; for Concentrations (plasma), average: all 25 patients; for High concentration group average (plasma concentration): high concentration group (10 patients); for Low concentration group average (plasma concentration): low concentration group (15 patients)
Method: Each patient gave blood samples before administration of their dose, and then again at nine further time points, 30 minutes after admiration, 1, 2, 3, 4, 6, 8, 12, and 24 hours post administration.
Samples: A total of 270 human plasma samples were received (in duplicate). The samples were shipped frozen over dry ice. The samples were stored at −70° C. (nominal) until analysis.
Frozen samples were thawed at room temperature. Samples, calibrators, QC samples, sample blanks (blank plasma) and reagent blanks (water) were processed at room temperature. To 200 μL aliquots of each sample, calibrator, and QC sample are added 20 μL of 500 ng/mL of internal standard solution. A sample blank (blank plasma) and reagent blank (water) were also prepared, but without addition of internal standard solution (20 μL of diluent was added instead). To each sample, 200 μL of 1% ammonium hydroxide solution were added and vortex mixed. 3.0 mL of methyl tert-butyl ether were added and then vortex mix for 30 seconds. The sample is then centrifuged for 5 minutes at 4000 rpm and then transferred for about 30 minutes at −70° C. (nominal). The upper (organic) layer was transferred into an evaporation tubes and then evaporated under N2 stream at ˜50° C. for about 20 min. Samples were then reconstituted in 1000 μL reconstitution solution (80:20:0.1 water: acetonitrile: formic acid). Samples were mixed, allow to stand for about 3 minutes and mixed again. 900 μL of the sample solution was transferred to a 1.5 mL microcentrifuge tube and centrifuged for 5 minutes at 14000 rpm at room temperature. 800 μL of the sample solution was transferred to a glass autosampler vial, and then transferred to the autosampler for analysis. Samples were separated using reversed-phase liquid chromatography with a C18 column.
Detection was based on electro-spray interface in positive mode (ESI+) LC-MS/MS technique, using Micromass Quattro Premier XE MS/MS detector with MassLynx and QuanLynx software version 4.1. […] The MRM transition for all hydroxyl metabolites was m/z 467→203.

[2] = healthy subjects, cited from earlier work
[3] = 1 h post administration, 1.00 = below LLOQ
[4] = 2 h post administration, 1.00 = below LLOQ
[5] = 3 h post administration, 1.00 = below LLOQ
[6] = 4 h post administration, 1.00 = below LLOQ
[7] = 6 h post administration, 1.00 = below LLOQ
[8] = 8 h post administration, 1.00 = below LLOQ
[9] = 12 h post administration, 1.00 = below LLOQ
[10] = 24 h post administration, 1.00 = below LLOQ
[11] = .5 h post administration, 1.00 = below LLOQ
[12] = time -15 (before administration), 1.00 = below LLOQ

Row | Compound | Concentrations (plasma), average [1, 3] | Concentrations (plasma), average [1, 4] | Concentrations (plasma), average [1, 5] | Concentrations (plasma), average [1, 6] | Concentrations (plasma), average [1, 7] | Concentrations (plasma), average [1, 8] | Concentrations (plasma), average [1, 9] | Concentrations (plasma), average [1, 10] | Concentrations (plasma), average [1, 11] | Concentrations (plasma), average [1, 12] | High concentration group average (plasma concentration) [1, 3] | High concentration group average (plasma concentration) [1, 4] | High concentration group average (plasma concentration) [1, 5] | High concentration group average (plasma concentration) [1, 6] | High concentration group average (plasma concentration) [1, 7] | High concentration group average (plasma concentration) [1, 8] | High concentration group average (plasma concentration) [1, 9] | High concentration group average (plasma concentration) ([1]; 24 h post administration) | High concentration group average (plasma concentration) [1, 11] | High concentration group average (plasma concentration) [1, 12] | further results
1 | 16-hydroxyl vanoxerine [M02] | 1.02 ng/mL | 1.02 ng/mL | 1.01 ng/mL | 1.01 ng/mL | 1.00 ng/mL | 1.00 ng/mL | 1.00 ng/mL | 1.00 ng/mL | 1.00 ng/mL | 1.00 ng/mL | 1.00 ng/mL | 1.05 ng/mL | 1.03 ng/mL | 1.02 ng/mL | 1.00 ng/mL | 1.00 ng/mL | 1.00 ng/mL | 0.00 ng/mL | 1.00 ng/mL | 1.00 ng/mL | Low concentration group average (plasma concentration) [1, 3]: 1.03 ng/mL; Low concentration group average (plasma concentration) [1, 4]: 1.00 ng/mL; Low concentration group average (plasma concentration) [1, 5]: 1.00 ng/mL; Low concentration group average (plasma concentration) [1, 6]: 1.00 ng/mL; Low concentration group average (plasma concentration) [1, 7]: 1.00 ng/mL; Low concentration group average (plasma concentration) [1, 8]: 1.00 ng/mL; Low concentration group average (plasma concentration) [1, 9]: 1.00 ng/mL; Low concentration group average (plasma concentration) [1, 10]: 1.00 ng/mL; Low concentration group average (plasma concentration) [1, 11]: 1.00 ng/mL; Low concentration group average (plasma concentration) [1, 12]: 1.00 ng/mL
2 | 17-hydroxyl vanoxerine [M01] | 7.51 ng/mL | 19.65 ng/mL | 18.68 ng/mL | 16.42 ng/mL | 11.48 ng/mL | 8.98 ng/mL | 6.30 ng/mL | 3.66 ng/mL | 1.93 ng/mL | 1.00 ng/mL | 8.64 ng/mL | 28.00 ng/mL | 29.64 ng/mL | 24.93 ng/mL | 18.08 ng/mL | 14.50 ng/mL | 9.98 ng/mL | 1.72 ng/mL | 2.55 ng/mL | 1.00 ng/mL | Low concentration group average (plasma concentration) [1, 3]: 6.76 ng/mL; Low concentration group average (plasma concentration) [1, 4]: 14.09 ng/mL; Low concentration group average (plasma concentration) [1, 5]: 11.38 ng/mL; Low concentration group average (plasma concentration) [1, 6]: 10.34 ng/mL; Low concentration group average (plasma concentration) [1, 7]: 7.08 ng/mL; Low concentration group average (plasma concentration) [1, 8]: 5.30 ng/mL; Low concentration group average (plasma concentration) [1, 9]: 3.67 ng/mL; Low concentration group average (plasma concentration) [1, 10]: 2.66 ng/mL; Low concentration group average (plasma concentration) [1, 11]: 1.52 ng/mL; Low concentration group average (plasma concentration) [1, 12]: 1.00 ng/mL
3 | Fc1ccc(C(OCCN2CCN(CCCc3ccccc3)CC2)c2ccc(F)cc2)cc1 [Vanoxerine, 1-[2-[bis(4-fluorophenyl)methoxy]ethyl]-4-(3-phenylpropyl)piperazine] |  |  |  |  |  |  |  |  |  |  |  |  |  |  |  |  |  |  |  |  | side-effects ([2]; daily repetitive dose of 50 mg): no side-effects should be expected; side-effects ([2]; higher doses of vanoxerine): some effects were seen with regard to concentration difficulties, increase systolic blood pressure, asthenia, and a feeling of drug influence
